Like-named read-outs stand apart in the source and are kept apart here.
Tests used:
[1] = target: T1, CDK1 (cyclin dependent kinase 1) / cyclin B (Homo sapiens, UniProt P06493); assay: CDK1 kinase assay; assay type: biochemical
T1 construct: purchased New England Biolabs 6020; host or cells: insect cells
Description: (§1) The term n.d. means not tested.
Assays to test compound inhibition of other kinases were preformed using methods that measure the amount of phosphorylation of a biotinylated peptide substrate. Biotinylated peptide substrates were selected from the literature as appropriate for the enzyme being evaluated. The general procedure used to assay for kinase activity is as follows: A kinase reaction mix was prepared in 50 mM Tris-HCl pH=8, 10 mM MgCl2, 0.1 mM NaVO4, 1 mM DTT, 5-10 μM ATP, 0.25-1 μM biotinylated peptide substrate, 0.2-0.8 μCuries per well ^33P-γ-ATP [2000-3000 Ci/mmol]. Assay conditions vary slightly for each protein kinase, for example, insulin receptor kinase requires 10 mM MnCl2 for activity and Calmodulin-dependent protein kinase requires calmodulin and 2 mM CaCl2. The reaction mixture was dispensed into the wells of a streptavidin coated Flashplate and 1 μl drug stock in 100% DMSO was added to a 100 μl reaction volume resulting in a final concentration of 1% DMSO in the reaction. Enzyme was diluted in 50 mM Tris-HCl pH=8.0, 0.1% BSA and added to each well. The reaction was incubated for one hour at 30° C. in the presence of compound. After one hour the reaction mix was aspirated from the plate and the plate was washed with PBS containing 100 mM EDTA. The plate was read on a scintillation counter to determine ^33P-γ-ATP incorporated into the immobilized peptide. […] A maximum and minimum signal for the assay was determined on each plate. The IC50 was calculated from the dose response curve of the percent inhibition of the maximum signal in the assay according to the formula [max signal−background/test compound signal−background (100)=% inhibition] by graphing the percent inhibition against the log concentration of test compound. Known inhibitor compounds appropriate for the kinase being assayed were also included on each plate.
VEGF-R (vascular endothelial growth factor receptor-2) is a fusion protein containing a polyhistidine tag at the N-terminus followed by amino acids 786-1343 of the rat VEGF-R2 kinase domain (GenBank Accession #U93306). CDK1 (cyclin dependent kinase 1) is isolated from insect cells expressing both the human CDK1 catalytic subunit and its positive regulatory subunit cyclin B (New England Biolabs, Beverly, Mass., Cat. #6020). CDK4 (cyclin dependent kinase 4) contains amino acids 769 to 921 of the mouse […] protein found in the GST-retinoblastoma protein construct (Santa Cruz Biotechnology, Santa Cruz, Calif.; Cat. #SC-4112). Insulin Receptor Kinase consists of residues 941-1313 of the cytoplasmic domain of the beta-subunit of the human insulin receptor (BIOMOL, Plymouth Meeting, Pa., Cat. #SE-195). Protein Kinase A is the catalytic subunit of cAMP dependent protein kinase-A purified from bovine heart (Upstate Biotech, Lake Placid, N.Y., Cat#14-114). PKC (protein kinase-C) is the gamma or beta isoform of the human protein produced in insect cells (BIOMOL, Plymouth Meeting, Pa., Cat. #SE-143). Casein Kinase 1 is a truncation at amino acid 318 of the C-terminal portion of the rat CK1 delta isoform produced in E.coli (New England Biolabs, Beverly, Mass., Cat. #6030). Casein Kinase 2 includes the alpha and beta subunits of the human CK2 protein produced in E.coli (New England Biolabs, Beverly, Mass., Cat. #6010). Calmodulin Kinase (calmodulin-dependent protein kinase 2) is a truncated version of the alpha subunit of the rat protein produced in insect cells (New England Biolabs, Beverly, Mass., Cat. #6060). Glycogen Synthase Kinase-3 is the beta isoform of the rabbit enzyme produced in E. coli (New England Biolabs, Beverly, Mass., Cat. #6040). MAP Kinase is the rat ERK-2 isoform containing a polyhistidine tag at the N-terminus produced in E. coli. and activated by phosphorylation with MEK1 prior to purification (BIOMOL, Plymouth Meeting, Pa., Cat. #SE-137). EGFR (epidermal growth factor receptor) is purified from human A431 cell membranes (Sigma, St. Louis, Mo., Cat.# E3641). […]

[2] = target: T2, VEGF-R (vascular endothelial growth factor receptor-2) (Rattus norvegicus, UniProt O08775); assay: VEGF-R screening assay (33P FlashPlate kinase assay); assay type: biochemical
T2 construct: polyhistidine (6xHis) (N)
Description: A kinase reaction mixture was prepared containing 50 mM Tris-HCl pH=8, 10 mM MgCl2, 0.1 mM NAPO4, 1 mM DTT, 10 μM ATP, 0.025 μM biotinylated peptide substrate and 0.8 μCuries per well ^33P-γ-ATP [2000-3000 Ci/mmol]. 70 μl of the kinase reaction mixture was dispensed into the well of a streptavidin coated FlashPlate™ (Cat. # SMP103, NEN, Boston, Mass.). Then 1 μl of test compound stock in 100% DMSO was added to the wells resulting in a final concentration of 1% DMSO in the reaction with a 100 μl final reaction volume. Next, soluble rat tyrosine kinase containing an N-terminal 6×HIS tag was diluted in 50 mM Tris-HCl pH=8.0, 0.1% BSA at a concentration of 5 ng per microliter and 30 μl (150 ng enzyme per test well) was added to each well to initiate the reaction. The reaction was incubated for one hour at 30° C. At the end of the 1-hour incubation, the reaction was terminated by aspirating the reaction mixture from the plate and washing the wells twice with PBS containing 100 mM EDTA. The PLCI biotinylated peptide substrate becomes immobilized on the Flashplate™ and the incorporation of ^33P-γ-ATP was measured by reading the plate on a scintillation counter. Inhibition of the enzymatic activity of the VEGF-R was measured by observing a reduced amount of ^33P-γ-ATP incorporated into the immobilized peptide.
as §1
Assays to test compound inhibition of other kinases were preformed using methods that measure the amount of phosphorylation of a biotinylated peptide substrate. Biotinylated peptide substrates were selected from the literature as appropriate for the enzyme being evaluated. The general procedure used to assay for kinase activity is as follows: A kinase reaction mix was prepared in 50 mM Tris-HCl pH=8, 10 mM MgCl2, 0.1 mM NaVO4, 1 mM DTT, 5-10 μM ATP, 0.25-1 μM biotinylated peptide substrate, 0.2-0.8 μCuries per well ^33P-γ-ATP [2000-3000 Ci/mmol]. Assay conditions vary slightly for each protein kinase, for example, insulin receptor kinase requires 10 mM MnCl2 for activity and Calmodulin-dependent protein kinase requires calmodulin and 2 mM CaCl2. The reaction mixture was dispensed into the wells of a streptavidin coated Flashplate and 1 μl drug stock in 100% DMSO was added to a 100 μl reaction volume resulting in a final concentration of 1% DMSO in the reaction. Enzyme was diluted in 50 mM Tris-HCl pH=8.0, 0.1% BSA and added to each well. The reaction was incubated for one hour at 30° C. in the presence of compound. After one hour the reaction mix was aspirated from the plate and the plate was washed with PBS containing 100 mM EDTA. The plate was read on a scintillation counter to determine ^33P-γ-ATP incorporated into the immobilized peptide. Test compounds were assayed in duplicate at 8 concentrations [100 tM, 10 μM, 1 μM, 100 nM, 10 nM, 1 nM, 100 μM, 10 μM]. A maximum and minimum signal for the assay was determined on each plate. The IC50 was calculated from the dose response curve of the percent inhibition of the maximum signal in the assay according to the formula [max signal−background/test compound signal−background (100)=% inhibition] by graphing the percent inhibition against the log concentration of test compound. Known inhibitor compounds appropriate for the kinase being assayed were also included on each plate.
VEGF-R (vascular endothelial growth factor receptor-2) is a fusion protein containing a polyhistidine tag at the N-terminus followed by amino acids 786-1343 of the rat VEGF-R2 kinase domain (GenBank Accession #U93306). CDK1 (cyclin dependent kinase 1) is isolated from insect cells expressing both the human CDK1 catalytic subunit and its positive regulatory subunit cyclin B (New England Biolabs, Beverly, Mass., Cat. #6020). CDK4 (cyclin dependent kinase 4) contains amino acids 769 to 921 of the mouse […] protein found in the GST-retinoblastoma protein construct (Santa Cruz Biotechnology, Santa Cruz, Calif.; Cat. #SC-4112). […]

[3] = Tables 1-3, >10 or >100 = no 50% inhibition at highest dose tested, read-out: CDK IC50
[4] = Tables 1-3, >10 or >100 = no 50% inhibition at highest dose tested, read-out: VEGF-R IC50
[5] = Table 4 kinase selectivity, 10 = approximate value, read-out: IC50, Assay 2 CDK1
[6] = Table 4 kinase selectivity, read-out: IC50, Assay 1 VEGF-R

T1 sequence (P06493 whole entry): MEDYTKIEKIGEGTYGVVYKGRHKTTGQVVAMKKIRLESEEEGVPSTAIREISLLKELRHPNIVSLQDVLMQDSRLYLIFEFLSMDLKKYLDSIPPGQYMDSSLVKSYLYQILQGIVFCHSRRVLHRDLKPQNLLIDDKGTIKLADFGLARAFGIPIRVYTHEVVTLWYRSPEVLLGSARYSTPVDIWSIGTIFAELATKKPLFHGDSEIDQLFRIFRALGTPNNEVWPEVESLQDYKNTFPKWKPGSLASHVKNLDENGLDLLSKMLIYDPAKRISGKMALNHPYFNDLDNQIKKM
T1 sequence (P14635 whole entry partner): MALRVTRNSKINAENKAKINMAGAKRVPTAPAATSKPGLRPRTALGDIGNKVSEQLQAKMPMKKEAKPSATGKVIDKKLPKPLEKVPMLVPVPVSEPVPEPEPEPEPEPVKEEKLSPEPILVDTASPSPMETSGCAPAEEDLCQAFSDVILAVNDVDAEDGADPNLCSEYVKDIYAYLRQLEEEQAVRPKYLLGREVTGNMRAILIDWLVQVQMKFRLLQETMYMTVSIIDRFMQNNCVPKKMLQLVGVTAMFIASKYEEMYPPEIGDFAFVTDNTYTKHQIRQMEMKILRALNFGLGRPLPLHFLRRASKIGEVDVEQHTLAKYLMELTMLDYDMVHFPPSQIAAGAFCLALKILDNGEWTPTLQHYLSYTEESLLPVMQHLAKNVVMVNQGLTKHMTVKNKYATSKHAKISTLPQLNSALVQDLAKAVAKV
T2 sequence (O08775 786-1343): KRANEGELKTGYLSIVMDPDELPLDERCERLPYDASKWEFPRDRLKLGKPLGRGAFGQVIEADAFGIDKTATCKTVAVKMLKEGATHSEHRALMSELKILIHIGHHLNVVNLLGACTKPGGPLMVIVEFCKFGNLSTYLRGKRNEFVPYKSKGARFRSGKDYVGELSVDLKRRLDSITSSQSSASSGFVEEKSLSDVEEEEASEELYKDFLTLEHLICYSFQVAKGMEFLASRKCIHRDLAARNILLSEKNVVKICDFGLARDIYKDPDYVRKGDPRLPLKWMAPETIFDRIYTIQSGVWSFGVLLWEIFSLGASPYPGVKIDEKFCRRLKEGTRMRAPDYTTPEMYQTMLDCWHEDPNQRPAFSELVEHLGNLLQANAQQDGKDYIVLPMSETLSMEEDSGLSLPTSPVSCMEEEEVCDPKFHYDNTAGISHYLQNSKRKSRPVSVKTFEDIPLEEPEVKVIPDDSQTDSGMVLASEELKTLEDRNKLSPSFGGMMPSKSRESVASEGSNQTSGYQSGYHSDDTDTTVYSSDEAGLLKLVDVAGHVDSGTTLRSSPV

| SMILES | IC50 [1, 3] | IC50 [2, 4] | IC50 [1, 5] | IC50 [2, 6] |
| --- | --- | --- | --- | --- |
| OCCNc1cncc(-c2cncc(Nc3cccc(Cl)c3)n2)c1 [Cmd 31] | ~10 µM | 0.15 µM | – | – |
| COCCOCCNc1cncc(-c2cncc(Nc3cccc(Cl)c3)n2)c1 [Cmd 85] | > 10 µM | 0.085 µM | > 10 µM | 0.085 µM |
| CN(C)CCNC(=O)c1cncc(-c2cncc(Nc3cccc(Cl)c3)n2)c1 [Cmd 38] | 3.69 µM | 4.3 µM | – | – |
| COCCC(=O)Nc1cncc(-c2cncc(Nc3cccc(Cl)c3)n2)c1 [Cmd 103] | > 10 µM | 0.59 µM | – | – |
| COc1ccc(Nc2cncc(-c3cncc(NCCCc4ccncc4)c3)n2)cc1 [Cmd 88] | > 10 µM | 0.154 µM | – | – |
| O=C(CO)Nc1cncc(-c2cncc(Nc3cccc(Cl)c3)n2)c1 [Cmd 105] | > 10 µM | 0.41 µM | – | – |
| N#Cc1ncc(NCCCO)cc1-c1cncc(Nc2cccc(Cl)c2)n1 [Cmd 111] | > 10 µM | > 10 µM | – | – |
| Clc1ccc(Nc2cncc(-c3cncc(NCCCc4ccncc4)c3)n2)cc1Cl [Cmd 89] | > 10 µM | 0.268 µM | – | – |
| OCCCNc1cncc(-c2cncc(Oc3cccc(Cl)c3)n2)c1 [Cmd 96] | > 10 µM | > 10 µM | – | – |
| Clc1cccc(Nc2cncc(-c3cncc(NCCCN4CCNCC4)c3)n2)c1 [Cmd 69] | > 10 µM | 0.364 µM | – | – |
| Clc1cccc(Nc2cncc(-c3cncc(NCCCN4CCOCC4)c3)n2)c1 [Cmd 34] | > 100 µM | 0.18 µM | – | – |
| O=C(Nc1cncc(-c2cncc(Nc3cccc(Cl)c3)n2)c1)c1cccnc1 [Cmd 43] | > 100 µM | 1.12 µM | – | – |
| CN(C)CCCNC(=O)c1cncc(-c2cncc(Nc3cccc(Cl)c3)n2)c1 [Cmd 37] | > 100 µM | 5.5 µM | – | – |
| O=C(COCc1ccccc1)Nc1cncc(-c2cncc(Nc3cccc(Cl)c3)n2)c1 [Cmd 101] | > 10 µM | > 10 µM | – | – |
| CCOC(=O)CCCNc1cncc(-c2cncc(Nc3cccc(Cl)c3)n2)c1 [Cmd 84] | 2.03 µM | 0.125 µM | 2.03 µM | 0.125 µM |
| Clc1cccc(Nc2cncc(-c3cncc(NCCCN4CCN(c5cccc(Cl)c5)CC4)c3)n2)c1 [Cmd 86] | > 10 µM | > 10 µM | – | – |
| CCOCC(=O)Nc1cncc(-c2cncc(Nc3cccc(Cl)c3)n2)c1 [Cmd 102] | > 10 µM | 0.93 µM | – | – |

| SMILES | IC50 [1, 3] | IC50 [2, 4] | IC50 [1, 5] | IC50 [2, 6] |
| --- | --- | --- | --- | --- |
| COc1cccc(Nc2cncc(-c3cncc(NCCCO)c3)n2)c1 [Cmd 57] | 81.4 µM | 0.81 µM | – | – |
| CCOCCCNC(=O)c1cncc(-c2cncc(Nc3cccc(Cl)c3)n2)c1 [Cmd 40] | > 100 µM | > 100 µM | – | – |
| Clc1cccc(Nc2cncc(-c3cncc(NCCCCc4ccncc4)c3)n2)c1 [Cmd 70] | – | 0.295 µM | – | – |
| CCOC(=O)c1cncc(-c2cncc(Nc3cccc(Cl)c3)n2)c1 [Cmd 1] | > 10 µM | – | – | – |
| OCCCNc1cncc(-c2cncc(Nc3cccc(F)c3)n2)c1 [Cmd 52] | ~100 µM | 0.17 µM | – | – |
| OCCCNc1cnc(Cl)c(-c2cncc(Nc3cccc(Cl)c3)n2)c1 [Cmd 110] | > 10 µM | > 10 µM | – | – |
| Clc1ccc(Nc2cncc(-c3cncc(NCCCc4ccncc4)c3)n2)cc1 [Cmd 87] | > 10 µM | 1 µM | – | – |
| OCCCNc1cncc(-c2cncc(NCc3ccccc3)n2)c1 [Cmd 62] | 34.4 µM | 1.05 µM | – | – |
| CN(C)c1ccc(C(=O)Nc2cncc(-c3cncc(Nc4cccc(Cl)c4)n3)c2)cc1 [Cmd 42] | > 100 µM | > 100 µM | – | – |
| OCCCNc1cnc(F)c(-c2cncc(Nc3cccc(Cl)c3)n2)c1 [Cmd 106] | > 10 µM | 0.138 to 0.365 µM | – | – |
| O=C(CCCOc1ccccc1)Nc1cncc(-c2cncc(Nc3cccc(Cl)c3)n2)c1 [Cmd 100] | > 10 µM | > 10 µM | – | – |
| Nc1ncc(NCCCO)cc1-c1cncc(Nc2cccc(Cl)c2)n1 [Cmd 107] | > 10 µM | 1.36 µM | – | – |
| CCN(CC)C(=O)CNc1cncc(-c2cncc(Nc3cccc(Cl)c3)n2)c1 [Cmd 81] | > 10 µM | 1.1 µM | – | – |
| Clc1cccc(Nc2cncc(-c3cncc(NCCOc4ccccc4)c3)n2)c1 [Cmd 83] | > 10 µM | > 10 µM | – | – |
| Nc1cncc(-c2cncc(Nc3cccc(Cl)c3)n2)c1 [Cmd 5] | 11.7 µM | 1.16 µM | – | – |
| COCCOCC(=O)Nc1cncc(-c2cncc(Nc3cccc(Cl)c3)n2)c1 [Cmd 98] | > 10 µM | 0.99 µM | – | – |
| CC(=O)Nc1ncc(NCCCO)cc1-c1cncc(Nc2cccc(Cl)c2)n1 [Cmd 109] | > 10 µM | > 10 µM | – | – |

Source: patent US6710048B2, “Pyrazine derivatives as modulators of tyrosine kinases” (Ortho-McNeil Pharmaceutical, Inc., priority 2000, dated 2004)
